Source: patent US20110028561A1, “PROTECTION OF NEURAL RETINA BY REDUCTION OF ROD METABOLISM” (CHILDREN'S MEDICAL CENTER CORPORATION, priority 2008, published 2011)
“Also recorded” adds a separate entry of the source.

Experiments:
[1] = system: rats with oxygen-induced retinopathy (OIR); test: Electroretinography in rats with oxygen-induced retinopathy (Example 1); format: in vivo, rat (Sprague-Dawley)
From the text: Rats with oxygen-induced retinopathy (OIR) are a common model of human retinopathy of prematurity (ROP). Both OIR and ROP are characterized by abnormal retinal vasculature and by lasting dysfunction of the neural retina. Recent findings in OIR rats imply a causal role for the rods in the ROP disease process. However, experimental manipulation of rod function is necessary to establish this role conclusively. The retinoid composition N-Retinylacetamide (all trans), of chemical composition C22H33NO “the drug” was administered in the rat OIR model of ROP.
OIR was induced in four litters of Sprague-Dawley pups (N=24) by exposure to alternating periods of 50% and 10% oxygen from the day of birth (P0) to P14. The light cycle was 12 hr light (10-30 lux) and 12 hr dark; the light-to-dark transition coincided with each oxygen alternation. For 15 days beginning P7, within one hour of this transition, the first and fourth litters were administered 6 mg/kg drug IP; the second and third litters received only vehicle. At P20-22, when marked retinal vascular abnormality is generally observed, electroretinograms were recorded and receptor and post-receptor function evaluated. Treatment effects were evaluated by ANOVA.

[2] = system: rats with oxygen-induced retinopathy (OIR); test: ERG of rod and rod-mediated neural function in the dark-adapted retina of OIR rats (Example 2); format: in vivo, rat (Sprague-Dawley); conditions: for magnitude of the rod response (Rmp3): p<0.001, most markedly at P30-32, vs vehicle; for recovery from phototransduction, latency to 50% recovery τ: double-flash paradigm
Procedure: (§1) Retinopathy was induced in Sprague-Dawley pups (N=46) by exposing them to alternating 24 hour periods of 50±1% and 10±1% oxygen from the day of birth to postnatal day (P) 14 as shown in FIG. 1. The light cycle was controlled at 12 hours 10-30 lux and 12 hours dark, except during test days when constant darkness was maintained. The light-to-dark transition was timed to coincide with each oxygen alternation. For two weeks, beginning on P7, during this transition, the first and fourth litters were injected intraperitoneally with 6 mg*kg-1 Ret-NH2; the second and third litters were administered an equivalent volume of vehicle (20% dimethyl sulfoxide, DMSO) alone. The injection schedule was designed to continue over the age range that begins with the onset of rapid increase in the rhodopsin content of the retina and lasts until rhodopsin content exceeds 50% of its adult amount (A. B. Fulton, and B. N. Baker, Invest Ophthalmol Vis Sci (1984) 25:647). […] The rats were assessed following a longitudinal design with tests at P20-22, P30-32, and P60-62. These dates were selected because they capture the height of vascular abnormality, a period of marked recovery, and an adult age, respectively (J. D. Akula, et al., Invest Ophthalmol Vis Sci (2007) 48:4351). At each test age, we studied the function of the neural retina and the morphology of the retinal vasculature using noninvasive techniques.
Shortly (0-2 days) after the final dose, the effects of the drug were assessed on the neural retina by electroretinography (ERG). The timing and intensity of the stimuli, which was designed to assess rod photoreceptor and rod-mediated post-receptor neural function, were under computer control. Two sets of experiments were performed. In the first, rod and rod-mediated neural function in the dark-adapted retina were assessed. In the second, the recovery of the rod photoreceptor from a bright, rhodopsin-bleaching stimulus was assessed. Each set of experiments was performed on approximately half of the subjects from each litter.
Sample traces were recorded these from a P30-32 VCM-treated rat; the sample records in panels D, E, and G were recorded in the same session. Characteristics of the rod photo-response were estimated from the ERG by fitting the Hood and Birch (D. C. Hood, and D. G. Birch, Vis Neurosci (1992) 8:107) formulation of the Lamb and Pugh (T. D. Lamb, and E. N. Pugh, Jr., J Physiol (1992) 449:719; E. N. Pugh, Jr., and T. D. Lamb, Biochim Biophys Acta (1993) 1141:111) model of the biochemical processes involved in the activation of photo-transduction to the a-wave:
P3(i,t)=Rmp3·(1−exp(−½·i·S·(t−td)^2))
In this equation, i is the intensity of the flash (R*) and t is elapsed time (seconds). The free parameters in the model, Rmp3, S, and td, were ensemble fitted using a square error minimization routine. Rmp3 is the amplitude (μV) of the saturated rod response; it is proportional to the magnitude of the dark current and depends upon the number of channels available for closure by light in the ROS (T. D. Lamb, and E. N. Pugh, Jr., J Physiol (1992) 449:719; E. N. Pugh, Jr., and T. D. Lamb, Biochim Biophys Acta (1993) 1141:111). S is a sensitivity (R*-1*sec-2) parameter that is related to the amplification constant, A, which summarizes the kinetics of the series of processes initiated by the photoisomerization of rhodopsin and resulting in closure of the channels in the plasma membrane of the photoreceptor. td is a brief delay (sec). Fitting of the model was restricted to the leading edge of the a-wave.
Following the study of the activation of phototransduction, deactivation of phototransduction was studied in the same rats using a double-flash paradigm. The time course of the rod response was derived to a green conditioning flash (CF) producing approximately 75 R*. This green flash, while producing an a-wave less than half of the saturated rod response, was nevertheless sufficient to fully suppress the dark current. […]

[3] = system: rats with oxygen-induced retinopathy (OIR); test: Recovery of the rod dark current from a rhodopsin-bleaching stimulus in OIR rats (Example 2); format: in vivo, rat (Sprague-Dawley); conditions: 30 second bleaching exposure, 6 mg/kg IP, vs vehicle, t50 often extrapolated
Procedure: Retinopathy was induced in Sprague-Dawley pups (N=46) by exposing them to alternating 24 hour periods of 50±1% and 10±1% oxygen from the day of birth to postnatal day (P) 14 as shown in FIG. 1. The light cycle was controlled at 12 hours 10-30 lux and 12 hours dark, except during test days when constant darkness was maintained. The light-to-dark transition was timed to coincide with each oxygen alternation. For two weeks, beginning on P7, during this transition, the first and fourth litters were injected intraperitoneally with 6 mg*kg-1 Ret-NH2; the second and third litters were administered an equivalent volume of vehicle (20% dimethyl sulfoxide, DMSO) alone. […] The rats were assessed following a longitudinal design with tests at P20-22, P30-32, and P60-62. […]
Shortly (0-2 days) after the final dose, the effects of the drug were assessed on the neural retina by electroretinography (ERG). […] In the first, rod and rod-mediated neural function in the dark-adapted retina were assessed. In the second, the recovery of the rod photoreceptor from a bright, rhodopsin-bleaching stimulus was assessed. […]
In the second set of experiments, performed on cohorts (n=22), the recovery of the dark current was assessed from a 30 second light exposure estimated to bleach […] of rhodopsin. […] Following the bleaching exposure, the response to the PF was assessed at two minute intervals for 40-50 minutes. […]

[4] = system: rats with oxygen-induced retinopathy (OIR); test: Arteriolar tortuosity from fundus images analysed with RISA in OIR rats (Example 2); format: in vivo, rat (Sprague-Dawley)
Procedure: as §1
To assess whether VCM treatment affected the retinal vasculature, wide-field images of the ocular fundus were obtained that show the major vessels of the retina following each ERG session. […] The arterioles were analyzed with RISA (R. Gelman, M. E. Invest Ophthalmol Vis Sci (2005) 46: 4734) custom image analysis software. In agreement with previous reports (J. D. Akula, Invest Ophthalmol Vis Sci (2007) 48:4351; K. Liu, et al., Invest Ophthalmol Vis Sci (2006) 47:2639), the venules were little affected by the induction of retinopathy. […] For each rat, the mean blood vessel integrated curvature across both eyes (median 10 arterioles) was determined to provide a measure of arteriolar tortuosity, TA (radians*pixel^−1), a measure which agrees well with subjective assessments in human subjects (R. Gelman, M. E. Invest Ophthalmol Vis Sci (2005) 46: 4734). […] To test this, the value of TA at P20 was subtracted from the value of TA at P60 in each rat to determine the change in arteriolar tortuosity during the course of the experiment.

visual cycle = conditions: mouse, dose 6 mg/kg; cited from earlier work
[5] = OIR rats, 6 mg/kg IP for 15 days from P7, ERG at P20-22, vs vehicle

unfavorable effects of rod function ([2]; 6 mg/kg IP): No unfavorable effects
magnitude of the rod response (Rmp3) ([2]; 6 mg/kg IP, listed as Ret-NH2, 6 mg/kg): larger
magnitude of the rod response (Rmp3) ([2]; 6 mg/kg IP, listed as VCM, 6 mg/kg): significantly increased
post-receptor sensitivity (log σ) ([2]; ERG b-wave, Naka-Rushton fit, 6 mg/kg IP, vs vehicle): not affected
saturated amplitude of the b-wave (Vm) ([2]; ERG b-wave, Naka-Rushton fit, 6 mg/kg IP, vs vehicle, listed as Ret-NH2, 6 mg/kg): larger
saturated amplitude of the b-wave (Vm) ([2]; ERG b-wave, Naka-Rushton fit, 6 mg/kg IP, vs vehicle, listed as VCM, 6 mg/kg): significantly (p<0.01) increased
recovery from phototransduction, latency to 50% recovery τ ([2]; 6 mg/kg IP, vs vehicle, listed as Ret-NH2, 6 mg/kg): faster recovery
recovery from phototransduction, latency to 50% recovery τ ([2]; 6 mg/kg IP, vs vehicle, listed as VCM, 6 mg/kg): significantly (p<0.01) faster
effect on rod function ([2]; summary of ERG data): advantageous, if transient, effect
post-receptor function ([2]; summary of ERG data): transient enhancement
SMILES: CC(=O)NC/C=C(C)/C=C/C=C(C)/C=C/C1=C(C)CCCC1(C)C [N-Retinylacetamide, N-Retinylacetamide (all trans)]
serious, negative alteration of the photoreceptor response ([1]; OIR rats after treatment, 6 mg/kg IP): no evidence of serious, negative alteration
effect on responses originating in the inner retina ([1]; OIR rats, 6 mg/kg IP): favorable effect
amplification constant of phototransduction [1, 5]: Neither the maximal rod response nor the amplification constant of phototransduction were significantly changed
maximal rod response [1, 5]: Neither the maximal rod response nor the amplification constant of phototransduction were significantly changed
post-receptor sensitivity (log s) ([1]; OIR rats, 6 mg/kg IP, P20-22, vs vehicle): unchanged
OFF response to a 400 ms stimulus ([1]; background that suppressed the saturating a-wave by ~90%, drug-treated vs vehicle-treated OIR rats, P20-22): 2 ×
time-constant of deactivation of phototransduction ([1]; double-flash protocol, OIR rats, 6 mg/kg IP, P20-22, vs vehicle): significantly shorter
maximal scotopic b-wave amplitude ([1]; drug-treated vs vehicle-treated OIR rats, 6 mg/kg IP, P20-22): twice as large
cone-driven response to 20 Hz flicker ([1]; same background, drug-treated vs vehicle-treated OIR rats, P20-22): 2 ×
rod response sensitivity (S) ([2]; 6 mg/kg IP two weeks from P7, tests P20-22, P30-32, P60-62, ANOVA vs vehicle, listed as VCM, 6 mg/kg): no statistically significant effect; also recorded: not significant, but did trend lower at every age
rod-mediated retinal function (photoreceptor and post-receptor neurons) ([2]; P20-22 and P30-32): improved at the earliest test age (P20-22), and even more markedly improved at the second (P30-32)
time to 50% recovery of the saturating rod photo-response after bleach (t50) [3]: not significantly altered overall
arteriolar tortuosity TA, main effect ([4]; OIR rats, 6 mg/kg IP, P20-22 to P60-62, vs vehicle): no main effect
appearance of vascular abnormalities ([4]; OIR rats, VCM regimen 6 mg/kg IP): did not prevent the appearance of vascular abnormalities
change in arteriolar tortuosity ΔP60-P20 (vascular recovery) ([4]; TA at P60 minus TA at P20, t-test p=0.001): more than twice the normal amount
recovery of arteriolar tortuosity TA ([4]; group x age interaction p=0.002, VCM vs vehicle treated rats): recovered more rapidly
suppression of the visual cycle (visual cycle): approximately 50%
